Measured values as given in patent publication US11491168B2, “Combination of Bcl-2/Bcl-xL inhibitors and chemotherapeutic agent and use thereof” (ASCENTAGE PHARMA (SUZHOU) CO., LTD., priority 2019, dated 2022).
Where two headings read alike, the source gives them in different places.

Key:
Bcl-xl = Bcl-xl (Homo sapiens, UniProt Q07817); experiment: binding to Bcl-xl protein
[1] = test system: SCLC patient-derived xenograft LU5188; experiment: LU5188 SCLC patient-derived xenograft; type: in vivo, female NOD.SCID mice
Experimental: (§1) The therapeutic efficacy of compound 15 alone and its multiple combinations in the treatment of subcutaneous HuPrime® Lung cancer xenograft model LU5250 and LU5188 in female NOD.SCID mice was evaluated.
(§2) Either LU5250 or LU5188 tumor mass with rough size of 3×3×3 mm^3 were inoculated into female NOD.SCID mice and the day of randomization was denoted as day 1. The treatment was initiated on day 1 when tumors approximated a mean volume 136 mm^3 of LU5250 and 155 mm^3 of LU5188, respectively. There were 6 groups enrolled in each model eventually. See Table 3 for the mode of administration and doses. Both models were taken down on day 21.

Bcl-w = Bcl-w (Homo sapiens, UniProt Q92843); experiment: binding to Bcl-w protein
[2] = test system: human SW620 cell line colon cancer xenograft; experiment: SW620 colon cancer xenograft model; type: in vivo, mice; details: single agents: Compound 15 100 mg/kg; irinotecan 50 mg/kg
Experimental: (§5) Subcutaneous xenograft tumor model of human cancer was established in immunodeficient mouse by cell inoculation: tumor cells in logarithmic growth phase were collected, counted, and then re-suspended in 1×PBS. The concentration of the cell suspension was adjusted to 2.5-5×10^7/mL. Tumor cells were inoculated subcutaneously in the right back of the immunized normal mouse with a 1 mL syringe (4 gauge needle) at 5-10×10^6/0.2 mL/mouse.
(§6) Animal weight and tumor size were measured twice a week during the study. The animals were checked daily for morbility and etc. […] Mortality and clinical signs observed during the study were recorded in the raw data. […]
(§7) Tumor volume (TV) was calculated as: TV=a×b^2/2 wherein a and b represent the measured length and width of tumor, respectively.
(§8) Relative tumor volume (RTV) was calculated as: RTV=Vt/V1 wherein V1 was the tumor volume on the first day of dosing, and Vt was the tumor volume measured on day t after dosing.
(§9) Relative tumor proliferation rate T/C (%), as an indication of anti-tumor effectiveness, was calculated as: Relative tumor proliferation rate T/C (%)=(TRTV/CRTV)×100%, wherein TRTV was RTV in treatment group, and CRTV was RTV in vehicle control group. […]

metastatic solid tumors [3] = experiment: Phase I or I/II clinical trials, pooled results as of Jan. 31, 2019; type: in vivo
Experimental: Three clinical trials (Phase I or Phase I/II) with similar study designs were conducted in the United States, Australia, and China. […] Tumor response assessment was performed every 2 cycles according to RECIST 1.1 criteria.

[4] = test system: SCLC patient-derived xenograft LU5250; experiment: LU5250 SCLC patient-derived xenograft; type: in vivo, female NOD.SCID mice
Experimental: as §1, §2

NCI-N87 xenograft [5] = experiment: NCI-N87 xenograft model, Compound 15 single agent; type: in vivo, nude mice; details: for mouse tumor volume upon the end point: tail vein injection, 10 consecutive days
Experimental: The NCI-N87 tumor-bearing mice were treated with different doses of Compound 15 by tail vein injection for 10 consecutive days.
The inventors extracted proteins from the removed tumor tissues and prepared tissue sections.

Mcl-1 = Mcl-1 (Homo sapiens, UniProt Q07820); experiment: binding to Mcl-1
metastatic solid tumors [6] = experiment: U.S. clinical trial as of Dec. 21, 2019; type: in vivo
Experimental: Three clinical trials (Phase I or Phase I/II) with similar study designs were conducted in the United States, Australia, and China. During the dose escalation phase, the patient received Compound 15 (10-400 mg) twice weekly or weekly intravenously for a 28-day treatment cycle. Tumor response assessment was performed every 2 cycles according to RECIST 1.1 criteria. The purpose of the study was to assess safety, maximum tolerated dose (MTD)/recommended phase II dose (RP2D), pharmacokinetics (PK), pharmacodynamics (PD), and the preliminary efficacy of Compound 15 as a single agent in metastatic solid tumors.
As of Dec. 21, 2019, 42 US patients with metastatic solid tumors (Table A) received Compound 15 treatment ranging from 10-400 mg in at least one 28-day cycle. The patients were treated in 2 cohorts. 31 patients in cohort 1 received Compound 15 twice a week (BIW) by intravenous (IV) infusion at a dose of 10 mg, 20 mg, 40 mg, 80 mg, 160 mg, 240 mg, 320 mg, or 400 mg; 11 patients in cohort 2 received Compound 15 once a week (QW) by IV infusion at a dose of 240 mg or 320 mg.

platelet = platelet toxicity; details: versus first-generation BCL-2 inhibitors
[7] = test system: subcutaneous NCI-H146 lung cancer xenograft; experiment: NCI-H146 lung cancer xenograft model (Example 8); type: in vivo, female SCID mice; details: for mRECIST_best: best response during the treatment, PR partial response, CR complete response, SD stable disease, PD progressive disease; for mRECIST_last: response on the last day of treatment, PR, CR, SD, PD
Experimental: The therapeutic efficacy of compound 15 alone and in multiple combinations in the treatment of subcutaneous NCI-H146 lung cancer xenograft model was evaluated.
1×10^7 NCI-H146 tumor cells were pre-treated in 0.1 mL of phosphate buffer and Matrigel (7:3) and inoculated into female SCID mice. The day of randomization was denoted as day 1. The treatment was initiated on day 1. The study was conducted in 8 groups of mice. See Table 6 for the mode of administration and doses. The entire study was taken down on day 21. The study was conducted in 40 mice. All the animals were randomized into 8 experimental groups.

NCI-N87 xenograft [8] = experiment: NCI-N87 xenograft model, Compound 15 with 5-FU
[9] = test system: human PC3 cell line prostate cancer xenograft; experiment: PC3 prostate cancer xenograft model; details: Compound 15 100 mg/kg; docetaxel 8 mg/kg
Experimental: as §5, §6, §7, §8, §9

[10] = test system: MDA-MB-231 triple-negative breast cancer tumor cell line; experiment: WST (CCK-8) anti-proliferation assay
Experimental: Cell plating: Anti-proliferation effects were detected by a CCK-8 (Cell Counting Kit-8) assay based on water soluble tetrazolium salt (WST).
The cells were seeded in 96-well plates. 95 μL complete medium was added to each negative control group, and 95 μL cell suspension in complete medium was added at a density of 5-10×10^4 cells/well to each well to be tested.
The MGC80-3 and SW620 used in the examples were purchased from the Cell Bank of the Shanghai Institute of Biochemistry and Cell Biology, Chinese Academy of Sciences. MDA-MB-231, PC-3, and NCI-H146 were available from the American Type Culture Collection (ATCC) under accession Nos. HTB-26, CRL-1435, and HTB-173, respectively. It should be noted that the cells used in the present disclosure are all available from ATCC. […]
Reading: At the end of the culture, for adherent cells, the old solution in the test wells was removed and 100 μl/well CCK-8 test solution (the corresponding medium containing 10% CCK-8, 5% FBS) was added. […]
The OD value was measured using a microplate reader (SpectraMax Plus 384, Molecular Devices, LLC., US) A450 nm. […] The percentage of cell viability was calculated by the following formula: (O.D. test well−O.D. blank control well)/(O.D. cell control well−O.D. blank control well)×100%.
The IC50 was calculated using the nonlinear regression data analysis method of Graphpad Prism 6.0 software.

Bcl-2 = Bcl-2 (Homo sapiens, UniProt P10415); experiment: binding to Bcl-2 protein
[11] = activity compared with first generation BCL-2 inhibitor
[12] = test system: NCI-N87 gastric cancer cell line; experiment: CCK-8 cell viability, NCI-N87; type: cell-based; details: Homo sapiens; NCI-N87, within 72 hours
Description: (§3) Thus, the sensitivity of gastric cancer cells to Compound 31 is closely related to the expression of Bcl-2, Bcl-xL and Bax.

AGS cells = experiment: AnnexinV/PI staining apoptosis, AGS; type: cell-based; details: 48 hours, Compound 31 0.3 μM, 5-FU 3 μM
Experimental: (§4) The inventors chose to combine Compound 31 with one of the most common chemotherapeutic drugs in clinic, 5-fluorouracil (5-FU). In order to investigate the effect and the potential mechanisms of Compound 31 and 5-FU on the growth of gastric cancer cells, the inventors used the AnnexinV/PI staining to detect the apoptosis of two gastric cancer cells, AGS and NCI-N87, 48 hours after the treatment with Compound 31 (0.3 μM), 5-FU (3 μM), and the combination at specified concentrations. […] In NCI-N87 cells, the combination group also achieved a higher apoptosis rate than the mono therapy groups, Compound 31 or 5-FU as a single agent leading to apoptosis rates of 24% or 18% while the combination group reaching an apoptosis rate of 46% (FIG. 29(a)).

NCI-N87 cells [13] = experiment: AnnexinV/PI staining apoptosis, NCI-N87; type: cell-based; details: NCI-N87, 48 hours; Compound 31 0.3 μM, 5-FU 3 μM
Experimental: as §4

[14] = test system: AGS gastric cancer cell line; experiment: CCK-8 cell viability, AGS; type: cell-based; details: within 72 hours
Description: as §3

NCI-N87 cells [15] = experiment: CCK-8 anti-proliferation, NCI-N87, Compound 31 with docetaxel; type: cell-based; details: Homo sapiens; NCI-N87, 72 hours, Compound 31 alone
Experimental: Briefly, NCI-N87 cells were seeded in 96-well plates and treated with different Compound 31 at different concentrations for 72 hours. […] Each concentration was prepared in triplicates. At the end of treatment, CCK-8 agents (10 μL/well) were added to the 96-well plate, and incubated with the cells for 2 hours. The OD450 value was measured using a microplate reader.

[16] = test system: small cell lung cancer cell line NCI-H146, NCI-H69 and NCI-H446; experiment: Cell Titer-Glo luminescent cell viability assay (CTG); type: cell-based, human; details: small cell lung cancer cells
Experimental: Cells in the logarithmic growth phase were collected for Cell Titer-Glo® (CTG) luminescence cell viability assay. 10 μL of the diluted drug solution was added into a 96-well plate while 10 μL of the medium was added into the 96-well control plate. For the study of the combination, 5 μL of the indicated test reagent was added to each well. At the end of the study, the 96-well plates were equilibrated to room temperature, and then 30 μL of CTG reagent (protected from light) was added to each well to induce cell lysis. The luminescent signal was then detected using a Biotek Synergy H1 plate reader. Percent cell viability (%) was calculated using the mean luminescence value (LN) of the replicate wells (blank) of the control group, according to the following formula: percent cell viability (%)=(fluorescence signal value of experimental cells−fluorescence signal value of negative control cell)/(fluorescence signal value of control cells−fluorescence signal value of negative control cells)×100%.
Cell viability curve was plotted using Graphpad Prism 6.0 software (Golden software, Golden, Colo., USA). For the study of the drug combination, the Combination Index (CI) was calculated using CalcuSyn software (BIOSOFT, UK) to further analyze the combined effects of the indicated drugs (Chou, Cancer Research 70, 440-446). […]

[17] = test system: AGS and NCI-N87 gastric cancer cell lines; experiment: cell cycle assay; type: cell-based
[18] = mean ± SEM, Compound 15 50 mg/kg i.v. BIW, Irinotecan 10 mg/kg i.p. Q4D, Paclitaxel 10 mg/kg i.v. Q4D

Chain of Bcl-w (Q92843 whole entry): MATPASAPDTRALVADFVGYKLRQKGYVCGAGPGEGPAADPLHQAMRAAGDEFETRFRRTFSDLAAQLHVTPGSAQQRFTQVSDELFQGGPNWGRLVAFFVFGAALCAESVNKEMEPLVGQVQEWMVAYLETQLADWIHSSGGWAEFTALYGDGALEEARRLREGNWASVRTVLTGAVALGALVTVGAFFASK
Chain of Bcl-xl (Q07817 whole entry): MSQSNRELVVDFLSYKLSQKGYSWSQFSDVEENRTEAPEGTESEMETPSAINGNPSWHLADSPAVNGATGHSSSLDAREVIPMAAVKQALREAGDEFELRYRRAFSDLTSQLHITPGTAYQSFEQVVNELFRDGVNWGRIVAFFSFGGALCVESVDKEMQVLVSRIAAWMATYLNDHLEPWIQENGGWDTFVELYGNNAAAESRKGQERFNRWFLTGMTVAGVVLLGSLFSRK
Chain of Mcl-1 (Q07820 whole entry): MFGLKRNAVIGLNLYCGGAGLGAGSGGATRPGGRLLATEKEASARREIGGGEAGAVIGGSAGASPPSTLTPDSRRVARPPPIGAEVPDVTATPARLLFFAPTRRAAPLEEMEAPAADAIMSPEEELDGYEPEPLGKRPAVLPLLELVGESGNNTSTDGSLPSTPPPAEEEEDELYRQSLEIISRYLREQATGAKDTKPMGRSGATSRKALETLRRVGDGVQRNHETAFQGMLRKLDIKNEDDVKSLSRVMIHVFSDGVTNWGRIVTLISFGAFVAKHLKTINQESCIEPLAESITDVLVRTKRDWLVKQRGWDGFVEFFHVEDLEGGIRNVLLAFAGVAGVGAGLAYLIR
Chain of Bcl-2 (P10415 whole entry): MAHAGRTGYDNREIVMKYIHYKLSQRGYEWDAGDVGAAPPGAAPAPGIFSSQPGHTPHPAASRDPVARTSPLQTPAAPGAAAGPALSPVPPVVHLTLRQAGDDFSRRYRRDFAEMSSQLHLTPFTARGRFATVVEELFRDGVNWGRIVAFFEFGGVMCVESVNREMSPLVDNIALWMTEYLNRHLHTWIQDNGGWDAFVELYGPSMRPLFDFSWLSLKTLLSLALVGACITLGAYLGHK

## Cc1c(S(C)(=O)=O)c(-c2cc(F)cc(N3CCN(c4ccc(NS(=O)(=O)c5ccc(N[C@H](CCN6CCC(C(=O)OCCP(=O)(O)O)CC6)CSc6ccccc6)c(S(=O)(=O)C(F)(F)F)c5)cc4)CC3)c2)c(-c2ccc(Cl)cc2)n1C(C)C [Compound 15, (R)-2-(1-(3-(4-(N-(4-(4-(3-(2-(4-chlorophenyl)-1-isopropyl-5-methyl-4-(methylsulfonyl)-1H-pyrrol-3-yl)-5-fluorophenyl)piperazin-1-yl)phenyl)sulfamoyl)-2-(trifluoromethylsulfonyl)phenylamino)-4-(phenylthio)butyl)piperidine-4-carbonyloxy)ethylphosphonic acid]
Bcl-xl
  IC50: 0.0044 µM
[1]; doses as Table 3
  T/C (%) @ day 21: 125.4%
[1]; [18]
  RTV @day 21: 17.05 ± 6.59
Bcl-w
  IC50: 0.0093 µM
[2]
  T/C (%): 60.6%
Metastatic solid tumors [3]; 19 evaluated SCLC patients, US patient, dose of 40 mg
  patients with partial remission (PR): 1
Metastatic solid tumors [3]; 44 patients
  grade 3/4 AE: decreased lymphocyte count: 6.8%
  grade 3/4 AE: elevated lipase: 6.8%
  grade 3/4 AE: hyponatremia: 11.4%
Metastatic solid tumors [3]; 44 patients, 7 dose levels, i.v. twice weekly or weekly
  tolerability: well tolerated at all tested dose levels
Metastatic solid tumors [3]; Australian studies, e.g. CRC
  cases of stable disease in other tumor types: 5
Metastatic solid tumors [3]; dose range of 10-160 mg
  AUC and Cmax on day 1 versus dose: increased proportionally with dose
Metastatic solid tumors [3]; pooled analysis
  MTD: had not been reached
[4]; doses as Table 3
  T/C (%) @ day 21: 136.8%
[4]; [18]
  RTV @day 21: 9.75 ± 3.77
NCI-N87 xenograft [5]; 25 mg/kg
  mouse tumor volume upon the end point: 700 mm^3
NCI-N87 xenograft [5]; 50 mg/kg
  mouse tumor volume upon the end point: 800 mm^3
NCI-N87 xenograft [5]; 100 mg/kg group
  percentage of Ki67-positive cells: significantly lower than other groups
NCI-N87 xenograft [5]; 100 mg/kg
  mouse tumor volume upon the end point: about 400 mm^3
NCI-N87 xenograft [5]; 25, 50, 100 mg/kg
  cleaved-caspase3 and PARP-1 cleavage bands in the tumor tissue: gradually increased as the dose increased
NCI-N87 xenograft [5]; among the four groups
  mouse body weight: no significant difference in body weight
NCI-N87 xenograft [5]; as the dosing concentration increased
  weight and size of the xenograft tumors: showed an evident trend of reduction
Mcl-1
  binding to Mcl-1: binds weakly
Metastatic solid tumors [6]; 36 patients with post-baseline tumor measurements
  patients with partial response (PR): 3
Metastatic solid tumors [6]; QW
  MTD/RP2D: 240 mg
Metastatic solid tumors [6]; SCLC patient #002-001, 40 mg BIW
  duration of PR: 19 cycles
Metastatic solid tumors [6]; human, in vivo
  accumulation: No significant accumulation
  time to resolution of platelet drop / thrombocytopenia: 2 to 6 days
Metastatic solid tumors [6]; human, in vivo, 28 day
  TRAE: alanine aminotransferase increased: 7.1%
  TRAE: aspartate aminotransferase increased: 9.5%
  TRAE: platelet count decreased: 14.3%
  patients with ≥G3 treatment emergent adverse events (TRAEs): 26.2%
Metastatic solid tumors [6]; human, in vivo, iv
  Cmax and AUC versus dose: approximately dose proportional
platelet
  platelet toxicity reduced: 10-30 times
[7]; Compound 15 20 mg/kg i.v. BIW, Irinotecan 5 mg/kg i.p. QW, Paclitaxel 10 mg/kg i.v. QW, Cisplatin 1 mg/kg i.p. Q4D
  RTV @day 21: 2.0 ± 0.3
[7]; progressive disease
  mRECIST_best: 1/5 PD
  mRECIST_last: 4/5 PD
[7]; stable disease
  mRECIST_best: 4/5 SD,
  mRECIST_last: 1/5 SD,
[7]; doses as Table 6
  T/C (%) @ day 21: 70.0%
NCI-N87 xenograft [8]; Compound 15 50 mg/kg qd 10 days, 5-FU 25 mg/kg once a week for two weeks
  mouse tumor volume upon the end point: 1600 mm^3
NCI-N87 xenograft [8]; mouse, in vivo
  mouse body weight: rebounded after a brief weight loss
[9]
  T/C (%): 84.4%
[10]; Homo sapiens, MDA-MB-231, 72 h, read-out: IC50 (A alone), MDA-MB-231, 72 hours
  IC50: 2.6 µM
[10]; read-out: IC50 (A alone), MDA-MB-231, 72 hours
  IC50: 4.55 µM
Bcl-2
  IC50: 0.0016 µM
[11]
  activity relative to the first generation BCL-2 inhibitor: about 10 times

## Cc1c(S(C)(=O)=O)c(-c2cc(F)cc(N3CCN(c4ccc(NS(=O)(=O)c5ccc(N[C@H](CCN6CCC(C(=O)O)CC6)CSc6ccccc6)c(S(=O)(=O)C(F)(F)F)c5)cc4)CC3)c2)c(-c2ccc(Cl)cc2)n1C(C)C [Compound 31, (R)-1-(3-(4-(N-(4-(4-(3-(2-(4-chlorophenyl)-1-isopropyl-5-methyl-4-(methylsulfonyl)-1H-pyrrol-3-yl)-5-fluorophenyl)piperazin-1-yl)phenyl)sulfamoyl)-2-(trifluoromethylsulfonyl)phenylamino)-4-(phenylthio)butyl)piperidine-4-carboxylic acid]
[12]
  IC50: 0.901 ± 0.23 µM
AGS cells
  apoptosis rate: approximately 22%
NCI-N87 cells [13]
  apoptosis rate: 24%
[14]
  IC50: 1.15 ± 0.56 µM
NCI-N87 cells [15]
  IC50: 0.405 µM
[16]
  inhibition of proliferation as a single agent: can inhibit proliferation of small cell lung cancer cells
[17]
  effect on cell cycle: no significant effect on cell cycle
